Measurements from patent US20110039721A1, “METHOD FOR PREDICTION ABOUT CARCINOGENICITY OF SUBSTANCE IN RODENT” (Chemicals Evaluation and Research Institute, priority 2007, published 2011).

Tests used:
[1] = system: mRNA expressed from the genes (A) to (D) in rat liver; experiment: Behavior of genes (mRNA expression level, oligo-DNA microarray) in rat liver after 28-day oral administration; assay type: in vivo; conditions: mRNA vs vehicle control group; for Behavior of gene caused by administration of chemical substance, Gene No. 4846 / Behavior of gene caused by administration of chemical substance, Gene No. 2026 / Behavior of gene caused by administration of chemical substance, Gene No. 4218 / Behavior of gene caused by administration of chemical substance, Gene No. 6182 / Behavior of gene caused by administration of chemical substance, Gene No. 5600: gene group (A); for Behavior of gene caused by administration of chemical substance, Gene No. 4846: Unigene No. Rn.144554; for Behavior of gene caused by administration of chemical substance, Gene No. 2026 / Behavior of gene caused by administration of chemical substance, Gene No. 4218: Unigene No. Rn.167075; for Behavior of gene caused by administration of chemical substance, Gene No. 6182: Unigene No. Rn.5834; for Behavior of gene caused by administration of chemical substance, Gene No. 5600: Unigene No. Rn.9836; for Behavior of gene caused by administration of chemical substance, Gene No. 1494 / Behavior of gene caused by administration of chemical substance, Gene No. 2045 / Behavior of gene caused by administration of chemical substance, Gene No. 2203: gene group (B); for Behavior of gene caused by administration of chemical substance, Gene No. 1494: Unigene No. Rn.1430; for Behavior of gene caused by administration of chemical substance, Gene No. 2045: Unigene No. Rn.19329; for Behavior of gene caused by administration of chemical substance, Gene No. 2203: Unigene No. Rn.21240; for Behavior of gene caused by administration of chemical substance, Gene No. 533 / Behavior of gene caused by administration of chemical substance, Gene No. 725 / Behavior of gene caused by administration of chemical substance, Gene No. 1163 / Behavior of gene caused by administration of chemical substance, Gene No. 4973 / Behavior of gene caused by administration of chemical substance, Gene No. 4095 / Behavior of gene caused by administration of chemical substance, Gene No. 1334 / Behavior of gene caused by administration of chemical substance, Gene No. 6620 / Behavior of gene caused by administration of chemical substance, Gene No. 6303 / Behavior of gene caused by administration of chemical substance, Gene No. 5878 / Behavior of gene caused by administration of chemical substance, Gene No. 1131 / Behavior of gene caused by administration of chemical substance, Gene No. 1562 / Behavior of gene caused by administration of chemical substance, Gene No. 1741 / Behavior of gene caused by administration of chemical substance, Gene No. 893 / Behavior of gene caused by administration of chemical substance, Gene No. 6026 / Behavior of gene caused by administration of chemical substance, Gene No. 154 / Behavior of gene caused by administration of chemical substance, Gene No. 1993 / Behavior of gene caused by administration of chemical substance, Gene No. 813 / Behavior of gene caused by administration of chemical substance, Gene No. 2494 / Behavior of gene caused by administration of chemical substance, Gene No. 2546 / Behavior of gene caused by administration of chemical substance, Gene No. 3776 / Behavior of gene caused by administration of chemical substance, Gene No. 3929 / Behavior of gene caused by administration of chemical substance, Gene No. 1119 / Behavior of gene caused by administration of chemical substance, Gene No. 6742 / Behavior of gene caused by administration of chemical substance, Gene No. 5634: gene group (C); for Behavior of gene caused by administration of chemical substance, Gene No. 533: Unigene No. Rn.106184; for Behavior of gene caused by administration of chemical substance, Gene No. 725: Unigene No. Rn.108075; for Behavior of gene caused by administration of chemical substance, Gene No. 1163: Unigene No. Rn.11766; for Behavior of gene caused by administration of chemical substance, Gene No. 4973: Unigene No. Rn.118529; for Behavior of gene caused by administration of chemical substance, Gene No. 4095: Unigene No. Rn.119024; for Behavior of gene caused by administration of chemical substance, Gene No. 1334 / Behavior of gene caused by administration of chemical substance, Gene No. 6620: Unigene No. Rn.120914; for Behavior of gene caused by administration of chemical substance, Gene No. 6303: Unigene No. Rn.123063; for Behavior of gene caused by administration of chemical substance, Gene No. 5878: Unigene No. Rn.143213; for Behavior of gene caused by administration of chemical substance, Gene No. 1131: Unigene No. Rn.144946; for Behavior of gene caused by administration of chemical substance, Gene No. 1562: Unigene No. Rn.14744; for Behavior of gene caused by administration of chemical substance, Gene No. 1741: Unigene No. Rn.1647; for Behavior of gene caused by administration of chemical substance, Gene No. 893: Unigene No. Rn.164817; for Behavior of gene caused by administration of chemical substance, Gene No. 6026: Unigene No. Rn.167685; for Behavior of gene caused by administration of chemical substance, Gene No. 154: Unigene No. Rn.185941; for Behavior of gene caused by administration of chemical substance, Gene No. 1993: Unigene No. Rn.18728; for Behavior of gene caused by administration of chemical substance, Gene No. 813: Unigene No. Rn.201760; for Behavior of gene caused by administration of chemical substance, Gene No. 2494: Unigene No. Rn.23969; for Behavior of gene caused by administration of chemical substance, Gene No. 2546: Unigene No. Rn.24561; for Behavior of gene caused by administration of chemical substance, Gene No. 3776: Unigene No. Rn.43232; for Behavior of gene caused by administration of chemical substance, Gene No. 3929: Unigene No. Rn.4620; for Behavior of gene caused by administration of chemical substance, Gene No. 1119: Unigene No. Rn.9757; for Behavior of gene caused by administration of chemical substance, Gene No. 6742: Unigene No. Rn.9779; for Behavior of gene caused by administration of chemical substance, Gene No. 5634: Unigene No. Rn.9862; for Behavior of gene caused by administration of chemical substance, Gene No. 5726: gene group (D), Unigene No. Rn.9939
Procedure, shortened: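 Groups of four male F344 SPF rats aged 5 weeks are gavaged once a day for 28 days with test chemical in solvent or with solvent alone at equal volume. Total RNA comes from liver taken on day 28. Fold change of 1.5 or 1/1.5 versus control, directionally consistent, defines significance.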

[2] = system: liver; conditions: classification of the substance (Cr+/Cr−); cited from earlier work
[3] = system: rodent; conditions: classification of the substance (C+/C−); cited from earlier work
[4] = classification of the substance (M+/M−); cited from earlier work

SMILES | Behavior of gene caused by administration of chemical substance, Gene No. 4846 [1] | Behavior of gene caused by administration of chemical substance, Gene No. 2026 [1] | Behavior of gene caused by administration of chemical substance, Gene No. 4218 [1] | Behavior of gene caused by administration of chemical substance, Gene No. 6182 [1] | Behavior of gene caused by administration of chemical substance, Gene No. 5600 [1] | Behavior of gene caused by administration of chemical substance, Gene No. 1494 [1] | Behavior of gene caused by administration of chemical substance, Gene No. 2045 [1] | Behavior of gene caused by administration of chemical substance, Gene No. 2203 [1] | Behavior of gene caused by administration of chemical substance, Gene No. 533 [1] | Behavior of gene caused by administration of chemical substance, Gene No. 725 [1] | Behavior of gene caused by administration of chemical substance, Gene No. 1163 [1] | Behavior of gene caused by administration of chemical substance, Gene No. 4973 [1] | Behavior of gene caused by administration of chemical substance, Gene No. 4095 [1] | Behavior of gene caused by administration of chemical substance, Gene No. 1334 [1] | Behavior of gene caused by administration of chemical substance, Gene No. 6620 [1] | Behavior of gene caused by administration of chemical substance, Gene No. 6303 [1] | Behavior of gene caused by administration of chemical substance, Gene No. 5878 [1] | Behavior of gene caused by administration of chemical substance, Gene No. 1131 [1] | Behavior of gene caused by administration of chemical substance, Gene No. 1562 [1] | Behavior of gene caused by administration of chemical substance, Gene No. 1741 [1] | other results
CCSCCC(N)C(=O)O (racemic) [TS070, D,L-Ethionine] | − | − | − | − | − | + | − | + | − | + | − | − | − | − | − | − | − | − | − | − | Behavior of gene caused by administration of chemical substance, Gene No. 893 [1]: −; Behavior of gene caused by administration of chemical substance, Gene No. 6026 [1]: −; Behavior of gene caused by administration of chemical substance, Gene No. 154 [1]: −; Behavior of gene caused by administration of chemical substance, Gene No. 1993 [1]: −; Behavior of gene caused by administration of chemical substance, Gene No. 813 [1]: −; Behavior of gene caused by administration of chemical substance, Gene No. 2494 [1]: −; Behavior of gene caused by administration of chemical substance, Gene No. 2546 [1]: −; Behavior of gene caused by administration of chemical substance, Gene No. 3776 [1]: −; Behavior of gene caused by administration of chemical substance, Gene No. 3929 [1]: −; Behavior of gene caused by administration of chemical substance, Gene No. 1119 [1]: −; Behavior of gene caused by administration of chemical substance, Gene No. 6742 [1]: −; Behavior of gene caused by administration of chemical substance, Gene No. 5634 [1]: −; Behavior of gene caused by administration of chemical substance, Gene No. 5726 [1]: −; Liver carcinogenicity [2]: Cr+; Carcinogenicity [3]: C+; Mutagenicity by Ames test [4]: M−
CCC1(c2ccccc2)C(=O)NC(=O)NC1=O [TS008, Phenobarbital] | + | − | − | − | − | + | − | − | + | + | − | + | + | + | + | + | − | − | + | + | Behavior of gene caused by administration of chemical substance, Gene No. 893 [1]: +; Behavior of gene caused by administration of chemical substance, Gene No. 6026 [1]: +; Behavior of gene caused by administration of chemical substance, Gene No. 154 [1]: +; Behavior of gene caused by administration of chemical substance, Gene No. 1993 [1]: +; Behavior of gene caused by administration of chemical substance, Gene No. 813 [1]: +; Behavior of gene caused by administration of chemical substance, Gene No. 2494 [1]: +; Behavior of gene caused by administration of chemical substance, Gene No. 2546 [1]: +; Behavior of gene caused by administration of chemical substance, Gene No. 3776 [1]: −; Behavior of gene caused by administration of chemical substance, Gene No. 3929 [1]: +; Behavior of gene caused by administration of chemical substance, Gene No. 1119 [1]: +; Behavior of gene caused by administration of chemical substance, Gene No. 6742 [1]: +; Behavior of gene caused by administration of chemical substance, Gene No. 5634 [1]: +; Behavior of gene caused by administration of chemical substance, Gene No. 5726 [1]: −; Mutagenicity by Ames test [4]: M−
